Data: patent US20050038058A1, “Novel compounds and methods for therapy” (Institute of Organic Chemistry and Biochemistry, priority 2001, published 2005)
In brackets after ≈: the same amount, converted by molar mass. Read-outs that look alike come from different tables or passages of the source.

Columns and labels:
[1] = system: HSV-2 (G); assay: Antiviral activity, HSV-2 (G), Table 1a; format: cell-based; conditions: for EC50: Human alphaherpesvirus 2
[2] = system: VZV TK − 07/1; assay: Antiviral activity, VZV TK- 07/1, Table 1a; format: cell-based; conditions: for EC50: Human alphaherpesvirus 3, read-out: Antiviral Activity EC50 VZV TK − 07/1
[3] = system: CMV Davis; assay: Antiviral activity, CMV Davis, Table 1a; format: cell-based; conditions: for EC50: Human betaherpesvirus 5
[4] = system: HSV-1 TK- VMW 1837; assay: Antiviral activity, HSV-1 TK- VMW 1837, Table 1a; format: cell-based; conditions: for EC50: Human alphaherpesvirus 1, read-out: Antiviral Activity EC50 HSV-1 TK- VMW 1837
[5] = system: VZV TK + YS; assay: Antiviral activity, VZV TK+ YS, Table 1a; format: cell-based; conditions: for EC50: Human alphaherpesvirus 3
[6] = system: MSV; assay: Antiviral activity, MSV, Table 1a; format: cell-based
[7] = system: HIV-2; assay: Antiviral activity, HIV-2, Table 1a; format: cell-based; conditions: for EC50: Human immunodeficiency virus 2
[8] = system: HIV-1; assay: microbe, parasite or virus in culture; conditions: Human immunodeficiency virus 1, read-out: Antiviral Activity EC50 HIV-1
[9] = system: HSV-1 (KOS); assay: Antiviral activity, HSV-1 (KOS), Table 1a; format: cell-based; conditions: for EC50: Human alphaherpesvirus 1
[10] = system: VZV TK − YS/R; assay: Antiviral activity, VZV TK- YS/R, Table 1a; format: cell-based; conditions: for EC50: Human alphaherpesvirus 3, read-out: Antiviral Activity EC50 VZV TK − YS/R
[11] = system: CMV AD-169; assay: Antiviral activity, CMV AD-169, Table 1a; format: cell-based; conditions: for EC50: Human betaherpesvirus 5, AD169
[12] = system: VZV TK + OKA; assay: Antiviral activity, VZV TK+ OKA, Table 1a; format: cell-based; conditions: for EC50: Human alphaherpesvirus 3, read-out: Antiviral Activity EC50 VZV TK + OKA
[13] = system: HIV-1(IIIB); assay: HIV-1(IIIB)-induced cytopathicity in MT-4 cell cultures; format: cell-based; conditions: Human immunodeficiency virus 1, IIIB, MT4; Table 2
Text: (§1) Viruses. The origins of MSV, HIV type 1 (HIV-1) (strain IIIB and Ba-L), HIV-2 (strain ROD) and FIV (strain Petaluma) have been described previously (Balzarini et al., AIDS 5: 21-28, 1991; De Clercq et al., Proc. Soc. Exp. Biol. Med. 137:590-594, 1971; Egberink et al., Proc. Natl. Acad. Sci. 87:3087-3091, 1990; Hartmann et al., Antiviral Chem. Chemother. 5:13-19, 1994; Popovic et al., Science 224:497-500, 1984). HIV-1(IIIB) and HIV-2(ROD) stocks were obtained from supernatants of virus-infected MT-4 cell cultures. HIV-1BaL was expanded in human primary M/M, whose supernatants were collected, filtered and stored at −80° C. before use. Characteristics of viral stocks used for this study were 2.1×10^8 HIV-RNA genomes/ml (corresponding to 35 ng of p24 antigen) and 5,000 tissue culture infectious doses 50% per ml (TCID50/ml) as assessed by virus titration in other primary M/M cultures. The isolation and characterization of the clinical HIV-1 isolates L1S, L6S and L6S/PMEA has been reported (Thormar et al., Proc. Natl. Acad. Sci. USA 93:3283-3287, 1995; Van Laethem et al., AIDS 15:553-561, 2001). […] HIV-1/L6S/PMEA is the clinical isolate HIV-1/L6S that has been isolated after culturing the virus for 11 passages in the presence of increasing concentrations of PMEA (adefovir).
(§2) In vitro antiviral assays. The activity against HIV-1- and HIV-2-induced cytopathicity was examined in MT-4 cell cultures at day 5 post infection and based on the determination of cell viability by trypan blue dye staining or in CEM cell cultures at day 4 to 5 post infection and based on the microscopical examination of virus-induced giant cell formation. HIV-1 and HIV-2 were added at 100 CCID50 to the cell cultures.

[14] = Inhibition of CEM cell growth (cytostatic activity); format: cell-based; conditions: human, CEM cells
Procedure: (§3) Cytostatic and antimetabolic effect of acyclic nucleoside phosphonates in vitro. The assays to examine the inhibition of CEM cell growth by the test compounds have been described previously (Balzarini et al., AIDS 5:21-28, 1991). The 50% cytostatic concentration (CC50) was defined as the concentration of compound that reduced the number of living cells by 50% . To measure MT-4 cell toxicity of the test compounds, 5×10^4 MT-4 cells were incubated in the wells of 96-well microplates in the presence or absence of different concentrations of the test compounds for 5 days at 37° C. The CC50 was then calculated from the number of living cells counted under a microscope by the trypan blue exclusion method.

[15] = system: MSV; assay: MSV-induced transformation of murine embryo fibroblast C3H/3T3 cell cultures; format: cell-based; conditions: Mus musculus
Procedure: The inhibitory effect of the test compounds on MSV-induced transformation of murine embryo fibroblast C3H/3T3 cell cultures was examined microscopically at day 6 post infection. MSV was added at 75 focus-forming units to the cell cultures. The detailed procedures for the antiretroviral evaluations has been described in detail before (Balzarini et al., AIDS 5:21-28, 1991; Balzarini et al., Antimicrob. Agents Chemother. 37:332-338, 1993; De Clercq et al., Proc. Soc. Exp. Biol. Med. 137:590-594, 1971).

[16] = system: HIV-1(IIIB); assay: HIV-1(IIIB)-induced cytopathicity in CEM cell cultures; format: cell-based
Text: as §1, §2

[17] = MT-4 cell toxicity (trypan blue exclusion); format: cell-based; conditions: human, MT-4 cells; reduction of cell viability; Table 2
Procedure: as §3

[18] = system: HIV-2(ROD); assay: HIV-2(ROD)-induced cytopathicity in MT-4 cell cultures; format: cell-based; conditions: Human immunodeficiency virus 2, MT4, read-out: EC50 HIV-2 (ROD) (MT-4)
Text: as §1, §2

[19] = system: HIV-2(ROD); assay: HIV-2(ROD)-induced cytopathicity in CEM cell cultures; format: cell-based; conditions: Human immunodeficiency virus 2, CCRF-CEM, read-out: EC50 HIV-2 (ROD) (CEM)
Text: as §1, §2

[20] = Alteration of C3H cell morphology (minimal inhibitory concentration); format: cell-based, murine; conditions: mouse, C3H/3T3 embryo fibroblast cells; microscopically visible alteration of cell morphology; > means no visible toxicity at the indicated concentration; read-out: CC50 C3H (minimal inhibitory concentration)
[21] = system: CEM cells; assay: Inhibition of CEM cell growth (cytostatic activity); format: cell-based
Procedure: as §3

[22] = system: HIV-1

SMILES | EC50 [1] [µg/mL] | EC50 [2] [µg/mL] | EC50 [3] [µg/mL] | EC50 [4] [µg/mL] | EC50 [5] [µg/mL] | EC50 [6] [µg/mL] | EC50 [7] [µg/mL] | EC50 [8] [µg/mL] | EC50 [9] [µg/mL] | EC50 [10] [µg/mL] | EC50 [11] [µg/mL] | EC50 [12] [µg/mL] | also measured
Nc1cc(OCCOCP(=O)(O)O)nc(N)n1 [Compound H-3404] | 24 (≈ 90.8 µM) | 2.5 (≈ 9.46 µM) | > 50 | 9.6 (≈ 36.3 µM) | 1.1 | 0.035 ± 0.002 (≈ 0.132 µM) | 0.43 ± 0.32 (≈ 1.63 µM) | 0.8 (≈ 3.03 µM) | 6.5 (≈ 24.6 µM) | 1.6 (≈ 6.06 µM) | > 50 | 1.2 | –
Nc1cc(SCCOCP(=O)(O)O)nc(N)n1 [Compound H-3408] | ≥ 80 | 20 (≈ 71.4 µM) | > 50 | 48 (≈ 171 µM) | 7 | 1.7 (≈ 6.07 µM) | 3 ± 1.4 (≈ 10.7 µM) | 5.5 ± 2.1 (≈ 19.6 µM) | 29 (≈ 103 µM) | 15 (≈ 53.5 µM) | > 50 | 7.5 | –
Nc1nc(OCCOCP(=O)(O)O)cc(OCCOCP(=O)(O)O)n1 [Example 10, 2-Amino-4,6-bis[2-(phosphonomethoxy)ethoxy]pyrimidine] | – | – | – | – | – | – | – | – | – | – | – | – | melting point: 108 °C
CN(C)c1cc(OCCOCP(=O)(O)O)nc(N)n1 [Compound H-3427] | > 400 | > 50 | > 50 | > 400 | > 50 | 139 ± 11 (≈ 476 µM) | > 100 | > 100 | > 400 | > 50 | > 50 | > 50 | –
Nc1nc(O)cc(OCCOCP(=O)(O)O)n1 [Compound 4, 2-amino-4-hydroxy-6-[2-(phosphonomethoxy)ethoxy]pyrimidine] | – | – | – | – | – | – | – | – | – | – | – | – | EC50 [13]: 1.9 ± 0.4 µg/mL (≈ 7.17 µM); CC50 ([14]; 50% cytostatic concentration, CEM cell proliferation, Table 1, read-out: CC50 (CEM)): 2.5 µg/mL (≈ 9.43 µM); CC50 ([14]; inhibition of cell proliferation, Table 2, read-out: CC50 CEM): 2.5 ± 0.2 µg/mL (≈ 9.43 µM); CC50 ([14]; read-out: CC50 for CEM cells): 2.5 µg/mL (≈ 9.43 µM); EC50 ([15]; C3H, read-out: EC50 against MSV-induced C3H cell transformation): 0.05 to 0.15 µg/mL (≈ 0.189 to 0.566 µM); EC50 ([15]; MSV-induced C3H cell transformation, Table 2, read-out: EC50 MSV (C3H)): 0.08 ± 0.03 µg/mL (≈ 0.302 µM); EC50 ([16]; Human immunodeficiency virus 1, CCRF-CEM, HIV-1 (IIIB) in CEM, no addition, Table 3, read-out: EC50 as such): 1.4 ± 0.71 µg/mL (≈ 5.28 µM); EC50 ([16]; Human immunodeficiency virus 1, CCRF-CEM, HIV-1 (IIIB) in CEM, Ade 100 μM, read-out: EC50 upon addition of Ade (100 μM)): 1.7 ± 1.2 µg/mL (≈ 6.41 µM); EC50 ([16]; Human immunodeficiency virus 1, CCRF-CEM, HIV-1 (IIIB) in CEM, Ado 400 μM, read-out: EC50 upon addition of Ado (400 μM)): 1.4 ± 0.93 µg/mL (≈ 5.28 µM); EC50 ([16]; Human immunodeficiency virus 1, CCRF-CEM, HIV-1 (IIIB) in CEM, Guo 10 μM, read-out: EC50 upon addition of Guo (10 μM)): 1.9 ± 0.92 µg/mL (≈ 7.17 µM); EC50 ([16]; Human immunodeficiency virus 1, CCRF-CEM, HIV-1 (IIIB) in CEM, dCyd 1 mM, read-out: EC50 upon addition of dCyd (1 mM)): 2.4 ± 1.9 µg/mL (≈ 9.05 µM); EC50 ([16]; Human immunodeficiency virus 1, CCRF-CEM, HIV-1 (IIIB) in CEM, dThd 10 μM, read-out: EC50 upon addition of dThd (10 μM)): 1 ± 0.3 µg/mL (≈ 3.77 µM); EC50 ([16]; Human immunodeficiency virus 1, CCRF-CEM, HIV-1(IIIB)-induced cytopathicity in CEM cell cultures, Table 1, read-out: EC50 HIV-1 (CEM)): 2.2 µg/mL (≈ 8.3 µM); EC50 ([16]; Human immunodeficiency virus 1, IIIB, CCRF-CEM, giant cell formation, mean ±SD of 2 to 4 experiments, Table 2, read-out: EC50 HIV-1 (IIIB) (CEM)): 1.4 ± 0.7 µg/mL (≈ 5.28 µM); CC50 at 5 days [17]: 10 ± 2.2 µg/mL (≈ 37.7 µM); EC50 [18]: 2.1 µg/mL (≈ 7.92 µM); EC50 [19]: 1.4 ± 1.2 µg/mL (≈ 5.28 µM); Minimal concentration causing visible cell morphology alteration [20]: ≥ 16 µg/mL
Nc1nc(OCCOCP(=O)(O)O)cc(=O)n1CCOCP(=O)(O)O [Compound H-3445] | > 400 | > 50 | > 50 | > 400 | > 50 | 107 ± 10 (≈ 265 µM) | > 100 | > 100 | > 400 | > 50 | > 50 | > 50 | –
C[C@@H](COc1cc(N)nc(N)n1)OCP(=O)(O)O [Compound 10, 2,4-diamino-6-(S)-[2-(phosphonome-thoxy)propoxy]pyrimidine] | – | – | – | – | – | – | – | – | – | – | – | – | Antiviral Activity EC50 HSV-2 (G) [1]: >80 µg/mL; CC50 (CEM) ([21]; 50% cytostatic concentration, CEM cell proliferation, Table 1): >100 µg/mL; Antiviral Activity EC50 VZV TK − 07/1 [2]: >50 µg/mL; Antiviral Activity EC50 CMV Davis [3]: >50 µg/mL; Antiviral Activity EC50 HSV-1 TK- VMW 1837 [4]: >80 µg/mL; Antiviral Activity EC50 VZV TK + YS [5]: >50 µg/mL; EC50 HIV-1 (CEM) ([16]; HIV-1(IIIB)-induced cytopathicity in CEM cell cultures, Table 1): 51 µg/mL (≈ 183 µM); Antiviral Activity EC50 MSV [6]: 6.1 µg/mL; Antiviral Activity EC50 HIV-2 [7]: 33 µg/mL; Antiviral Activity EC50 HIV-1 [22]: 51 µg/mL; Antiviral Activity EC50 HSV-1 (KOS) [9]: >80 µg/mL; Antiviral Activity EC50 VZV TK − YS/R [10]: >50 µg/mL; Antiviral Activity EC50 CMV AD-169 [11]: >50 µg/mL; Antiviral Activity EC50 VZV TK + OKA [12]: >50 µg/mL
Nc1nc(N)c(Br)c(OCCOCP(=O)(O)O)n1 [5-bromo-derivative of 1, 2,4-Diamino-5-bromo-6-[2-(phosphonomethoxy)ethoxy]pyrimidine] | – | – | – | – | – | – | – | – | – | – | – | – | Cytotoxicity at 100 μg/mL ([21]; 100 μg/mL): not toxic; Concentration at which active against HIV-1 in CEM cell cultures [16]: 2.5 µg/mL; melting point: 218 °C
